Assay results as given in PubChem BioAssay (NCI).
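In this assay, cells in 96-well plates receive the compound at five concentrations for 48 hours. Endpoints are linearly interpolated between the surrounding concentrations. TGI is the concentration that stops growth completely.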

How the values were obtained:
Assay in all cases: NCI tumour cell line growth inhibition, 48 h
786-0 renal = test system: 786-0 renal
A549 NSCLC = test system: A549 NSCLC
ACHN renal = test system: ACHN renal
BT-549 breast = test system: BT-549 breast
CAKI-1 renal = test system: CAKI-1 renal
CCRF-CEM leukemia = test system: CCRF-CEM leukemia
DU-145 prostate = test system: DU-145 prostate
EKVX NSCLC = test system: EKVX NSCLC
HCC-2998 colon = test system: HCC-2998 colon
HCT-116 colon = test system: HCT-116 colon
HCT-15 colon = test system: HCT-15 colon
HL-60(TB) leukemia = test system: HL-60(TB) leukemia
HOP-62 NSCLC = test system: HOP-62 NSCLC
HOP-92 NSCLC = test system: HOP-92 NSCLC
HS 578T breast = test system: HS 578T breast
HT29 colon = test system: HT29 colon
IGROV1 ovarian = test system: IGROV1 ovarian
K-562 leukemia = test system: K-562 leukemia
KM12 colon = test system: KM12 colon
LOX IMVI melanoma = test system: LOX IMVI melanoma
MALME-3M melanoma = test system: MALME-3M melanoma
MCF7 breast = test system: MCF7 breast
MDA-MB-231 breast = test system: MDA-MB-231 breast
MDA-MB-435 = test system: MDA-MB-435
MDA-N = test system: MDA-N
MOLT-4 leukemia = test system: MOLT-4 leukemia
NCI-H226 lung = test system: NCI-H226 lung
NCI-H23 lung = test system: NCI-H23 lung
NCI-H460 lung = test system: NCI-H460 lung
NCI-H522 lung = test system: NCI-H522 lung
NCI/ADR-RES ovarian = test system: NCI/ADR-RES ovarian
OVCAR-3 ovarian = test system: OVCAR-3 ovarian
OVCAR-4 ovarian = test system: OVCAR-4 ovarian
OVCAR-5 ovarian = test system: OVCAR-5 ovarian
OVCAR-8 ovarian = test system: OVCAR-8 ovarian
PC-3 prostate = test system: PC-3 prostate
RPMI-8226 leukemia = test system: RPMI-8226 leukemia
RXF 393 renal = test system: RXF 393 renal
SF-268 CNS = test system: SF-268 CNS
SF-295 CNS = test system: SF-295 CNS
SF-539 CNS = test system: SF-539 CNS
SK-MEL-2 melanoma = test system: SK-MEL-2 melanoma
SK-MEL-28 melanoma = test system: SK-MEL-28 melanoma
SK-MEL-5 melanoma = test system: SK-MEL-5 melanoma
SK-OV-3 ovarian = test system: SK-OV-3 ovarian
SN12C renal = test system: SN12C renal
SNB-19 CNS = test system: SNB-19 CNS
SNB-75 CNS = test system: SNB-75 CNS
SR leukemia = test system: SR leukemia
SW-620 colon = test system: SW-620 colon
T-47D breast = test system: T-47D breast
TK-10 renal = test system: TK-10 renal
U251 CNS = test system: U251 CNS
UACC-257 melanoma = test system: UACC-257 melanoma
UACC-62 melanoma = test system: UACC-62 melanoma
UO-31 renal = test system: UO-31 renal
A498 renal = test system: A498 renal
COLO 205 colon = test system: COLO 205 colon
M14 melanoma = test system: M14 melanoma

COCOc1c(C(OCOC)c2cnc(Sc3ccccc3)n2C)ccc(OC)c1OC (stereo unspecified)
TGI (786-0 renal): > 100 µM
TGI (A549 NSCLC): > 100 µM
TGI (ACHN renal): > 100 µM
TGI (BT-549 breast): > 100 µM
TGI (CAKI-1 renal): > 100 µM
TGI (CCRF-CEM leukemia): > 100 µM
TGI (DU-145 prostate): > 100 µM
TGI (EKVX NSCLC): > 100 µM
TGI (HCC-2998 colon): > 100 µM
TGI (HCT-116 colon): > 100 µM
TGI (HCT-15 colon): > 100 µM
TGI (HL-60(TB) leukemia): > 100 µM
TGI (HOP-62 NSCLC): > 100 µM
TGI (HOP-92 NSCLC): > 100 µM
TGI (HS 578T breast): > 100 µM
TGI (HT29 colon): > 100 µM
TGI (IGROV1 ovarian): > 100 µM
TGI (K-562 leukemia): > 100 µM
TGI (KM12 colon): > 100 µM
TGI (LOX IMVI melanoma): > 100 µM
TGI (MALME-3M melanoma): > 100 µM
TGI (MCF7 breast): > 100 µM
TGI (MDA-MB-231 breast): > 100 µM
TGI (MDA-MB-435): > 100 µM
TGI (MDA-N): > 100 µM
TGI (MOLT-4 leukemia): > 100 µM
TGI (NCI-H226 lung): > 100 µM
TGI (NCI-H23 lung): > 100 µM
TGI (NCI-H460 lung): > 100 µM
TGI (NCI-H522 lung): > 100 µM
TGI (NCI/ADR-RES ovarian): > 100 µM
TGI (OVCAR-3 ovarian): > 100 µM
TGI (OVCAR-4 ovarian): > 100 µM
TGI (OVCAR-5 ovarian): > 100 µM
TGI (OVCAR-8 ovarian): > 100 µM
TGI (PC-3 prostate): > 100 µM
TGI (RPMI-8226 leukemia): > 100 µM
TGI (RXF 393 renal): > 100 µM
TGI (SF-268 CNS): > 100 µM
TGI (SF-295 CNS): > 100 µM
TGI (SF-539 CNS): > 100 µM
TGI (SK-MEL-2 melanoma): > 100 µM
TGI (SK-MEL-28 melanoma): > 100 µM
TGI (SK-MEL-5 melanoma): > 100 µM
TGI (SK-OV-3 ovarian): > 100 µM
TGI (SN12C renal): > 100 µM
TGI (SNB-19 CNS): > 100 µM
TGI (SNB-75 CNS): > 100 µM
TGI (SR leukemia): > 100 µM
TGI (SW-620 colon): > 100 µM
TGI (T-47D breast): > 100 µM
TGI (TK-10 renal): > 100 µM
TGI (U251 CNS): > 100 µM
TGI (UACC-257 melanoma): > 100 µM
TGI (UACC-62 melanoma): > 100 µM
TGI (UO-31 renal): > 100 µM

COc1ccc2c(c1)CCc1c-2n(CCN2CCOCC2)c2ccc(OC)cc12
TGI (786-0 renal): > 100 µM
TGI (A498 renal): > 100 µM
TGI (A549 NSCLC): > 100 µM
TGI (ACHN renal): > 100 µM
TGI (BT-549 breast): > 100 µM
TGI (CAKI-1 renal): > 100 µM
TGI (CCRF-CEM leukemia): 53.1 µM
TGI (COLO 205 colon): > 100 µM
TGI (DU-145 prostate): > 100 µM
TGI (HCC-2998 colon): 33.2 µM
TGI (HCT-116 colon): > 100 µM
TGI (HCT-15 colon): > 100 µM
TGI (HOP-62 NSCLC): > 100 µM
TGI (HOP-92 NSCLC): > 100 µM
TGI (HS 578T breast): > 100 µM
TGI (HT29 colon): 53.6 µM
TGI (IGROV1 ovarian): > 100 µM
TGI (K-562 leukemia): 54 µM
TGI (KM12 colon): > 100 µM
TGI (M14 melanoma): > 100 µM
TGI (MALME-3M melanoma): > 100 µM
TGI (MCF7 breast): > 100 µM
TGI (MDA-MB-231 breast): > 100 µM
TGI (MDA-MB-435): > 100 µM
TGI (MDA-N): > 100 µM
TGI (MOLT-4 leukemia): 41.1 µM
TGI (NCI-H226 lung): > 100 µM
TGI (NCI-H23 lung): > 100 µM
TGI (NCI-H460 lung): > 100 µM
TGI (NCI-H522 lung): > 100 µM
TGI (NCI/ADR-RES ovarian): > 100 µM
TGI (OVCAR-3 ovarian): > 100 µM
TGI (OVCAR-4 ovarian): > 100 µM
TGI (OVCAR-5 ovarian): > 100 µM
TGI (OVCAR-8 ovarian): > 100 µM
TGI (PC-3 prostate): > 100 µM
TGI (RPMI-8226 leukemia): > 100 µM
TGI (RXF 393 renal): > 100 µM
TGI (SF-268 CNS): > 100 µM
TGI (SF-295 CNS): > 100 µM
TGI (SF-539 CNS): > 100 µM
TGI (SK-MEL-2 melanoma): > 100 µM
TGI (SK-MEL-28 melanoma): > 100 µM
TGI (SK-MEL-5 melanoma): > 100 µM
TGI (SK-OV-3 ovarian): > 100 µM
TGI (SN12C renal): > 100 µM
TGI (SNB-75 CNS): > 100 µM
TGI (SR leukemia): 34.8 µM
TGI (SW-620 colon): > 100 µM
TGI (T-47D breast): > 100 µM
TGI (TK-10 renal): > 100 µM
TGI (U251 CNS): > 100 µM
TGI (UACC-257 melanoma): > 100 µM
TGI (UACC-62 melanoma): > 100 µM
TGI (UO-31 renal): > 100 µM
